In patent publication US7439040B2, “Protease regulator screening assay” (Novartis Vaccines and Diagnostics, Inc., priority 1996, dated 2008):
Where “and” joins values, the source holds several entries; their conditions need not be identical. Equal entries are not always repeated.

Key:
Assay type in all cases: biochemical
[1] = molecular target: T1, HCV protease (Hepatitis C virus genotype 1a, UniProt P26664); test: Short incubation time, NS5A/5B substrate HCV protease inhibitor screen; conditions: control setup; duplicates; listed as control 4
T1 construct: Peptide 4A, a co-factor of the NS3 HCV protease; made in house
Method: Using a Short Incubation Time and NS5A/5B as a Substrate to Screen HCV Protease Inhibitors
A target polypeptide was prepared having an anchor region (protein A) molecule, a linker, a protease target site of HCV NS5A/5B, another linker, and a FLAG epitope tag region. The target polypeptide was expressed in sufficient quantities to conduct the assay.
The inhibitor was pre-incubated (diluted to 1 μM) with HCV protease (0.2 μM) for 1 hour at room temperature. A solution of NS5A/5B substrate (20 μg/well) was added to the pre-incubated protease and protease inhibitor mixture, and the total mixture was incubated for 15 minutes. The mixture was transferred to a human IgG coated plate and incubated for 1 hour at 37° C. The plate was washed five times with wash buffer.
Two hundred microliter of mouse anti-FLAG monoclonal antibody (1:200d from stock solution) was added to the designated wells and incubated for 1 hour at 37° C. The plate was washed five times with wash buffer. Affinity purified goat anti-mouse (H+L)-HRPO (Fab′)2 conjugate (1:5000d) in the amount of 200 μl was added to all the reaction wells except the blank well and incubate 1 hour at 37° C. The plate was washed five times with wash buffer. The plate was developed with OPD substrate for 30 minutes at room temperature. The plate was read with a microtiter plate reader at 490/620 nm.

[2] = molecular target: T2, NS3 HCV protease (Hepatitis C virus genotype 1a, UniProt P26664); test: HCV protease inhibitor screening assay using NS4B/5A cleavage site with co-factor peptide 4A; conditions: DCIC 1 μM, duplicates
T2 construct: Peptide 4A, a co-factor of the NS3 HCV protease; made in house
Method: The HCV Protease Inhibitor Screening Assay Using NS4B/5A Cleavage Site
Plate: Human IgG coated on HB COSTAR plate, 200 ng/well
The protease: Ni-13 (F21) diluted 1:300 in the enzyme stock buffer
The protease inhibitor: diluted to 1 mM in the enzyme stock buffer
A substrate polypeptide was prepared having an anchor region (protein A), a linker, two protease target sites of NS4B/5A, another linker, and a FLAG epitope tag. The target polypeptide was expressed in sufficient quantities to conduct the assay.
[…] The plate was washed five times with wash buffer. The inhibitor, if any, was pre-incubated (diluted to 1 uM) with HCV protease, NS4A (0.2 uM) for one hour at room temperature. Peptide 4A, a co-factor of the NS3 HCV protease was added in different concentrations to all wells containing the protease mixture (20X concentration is 4 μM). The above mixture was transferred to the plate coated with IgG-4B/5A complex and incubated overnight at room temperature (about 20° C. −25° C.). The final concentration of the NS4A in each well was 4 μM. The plate was washed five times with wash buffer. Mouse anti-FLAG monoclonal antibody in the amount of 200 μl (1:200d from stock solution) was added to the designated wells and incubated one hour at 37° C. The plate was washed five times with wash buffer. Affinity purified goat anti-mouse (H+L)-HRP (Fab′)2 conjugate (1:5000d) in the amount of 200 μl was added to all the reaction wells except the blank well and incubated one hour at 37° C. The plate was washed five times with wash buffer. Then the plate was developed with OPD substrate for 30 minutes at room temperature. The plate was read with a microtiter plate reader at 490/620 nm.

[3] = molecular target: T1, HCV protease; test: HCV protease inhibitor screening assay using NS5A/5B cleavage site (pro A-NS5 substrate, anti-FLAG/HRP OD readout)
Text: The HCV Protease Inhibitor Screening Assay Using NS5A/5B as Cleavage Site Expression Construct and its Encoded Polypeptide
A fragment encoding HCV NS5 peptide protease target site was inserted in frame into the polylinker region of pEZZ18 so that it is connected at the C-terminal region of Protein A. The NS5 peptide protease target site includes the NS5A and NS5B cleavage site, i.e., amino acids 2420 and 2421, 7 amino acids at the N-terminal side of the cleavage site, and 8 amino acids at the C-terminal side of the cleavage site.
Another sequence fragment encoding the FLAG tag was inserted in frame at the C-terminal end of the NS5 peptide protease target site. The sequence fragment encodes three FLAG tags alternately spaced with two 4-Glycine spacers.
Microwell plates containing 96 wells were prepared by coating the wells with IgG. Then the plates were dried. The purified protein NS5 was incubated with the dry plates for 1 hour at 37° C. to allow binding of the Protein A region of the protein to the IgG in the microwells.
Protease was prepared by elution from a nickel column. Various concentrations of HCV protease were prepared. The protease was incubated with and without a known protease inhibitor, DCIC (di-chloro-iso-coumarin). The incubation was for 1 hour at room temperature. Subsequently the protease was transferred to the coated plates. […]
Diluted monoclonal anti-FLAG mouse antibodies (available from Kodak) were added to the HCV protease treated plates and incubated with the plates for 1 hour at 37° C. The plates were subsequently washed and incubated with affinity purified goat anti-mouse-HRP (horse radish peroxidase) conjugates for 1 hour at 37° C. Then the plates were washed, and incubated with a developer such as o-phenylenediamine dihydrochloride (OPD). The optical density (OD) was determined at 492 and 620 nm settings.

[4] = molecular target: T1, HCV protease; test: NS5A/5B as substrate to screen HCV protease inhibitor candidates; conditions: control setup, pro A-NS5 substrate
Method: The substrate polypeptide, (10 μg/well) in 200 μl was added to a human IgG coated plate and incubated for one hour. The plate was washed five times with wash buffer. The inhibitor, if any, was pre-incubated (diluted to 1 uM) with HCV protease, NS4A (0.2 uM) for one hour at room temperature. Peptide 4A, a co-factor of the NS3 HCV protease was added in different concentrations to all wells containing the protease mixture (20X concentration is 4 μM). […] The final concentration of the NS4A in each well was 4 μM. The plate was washed five times with wash buffer. Mouse anti-FLAG monoclonal antibody in the amount of 200 μl (1:200d from stock solution) was added to the designated wells and incubated one hour at 37° C. The plate was washed five times with wash buffer. Affinity purified goat anti-mouse (H+L)-HRP (Fab′)2 conjugate (1:5000d) in the amount of 200 μl was added to all the reaction wells except the blank well and incubated one hour at 37° C. The plate was washed five times with wash buffer. Then the plate was developed with OPD substrate for 30 minutes at room temperature. The plate was read with a microtiter plate reader at 490/620 nm.
Using NS5A/5B as Substrate to Screen HCV Protease Inhibitor Candidates
A target polypeptide was prepared having an anchor region, a linker region, a protease target site of HCV NS5A/5B, another linker region, and a FLAG epitope tag region. […]

[5] = protease, substrate and inhibitor preincubated overnight, pools 1:100 D

T2 sequence (P26664 1027-1657): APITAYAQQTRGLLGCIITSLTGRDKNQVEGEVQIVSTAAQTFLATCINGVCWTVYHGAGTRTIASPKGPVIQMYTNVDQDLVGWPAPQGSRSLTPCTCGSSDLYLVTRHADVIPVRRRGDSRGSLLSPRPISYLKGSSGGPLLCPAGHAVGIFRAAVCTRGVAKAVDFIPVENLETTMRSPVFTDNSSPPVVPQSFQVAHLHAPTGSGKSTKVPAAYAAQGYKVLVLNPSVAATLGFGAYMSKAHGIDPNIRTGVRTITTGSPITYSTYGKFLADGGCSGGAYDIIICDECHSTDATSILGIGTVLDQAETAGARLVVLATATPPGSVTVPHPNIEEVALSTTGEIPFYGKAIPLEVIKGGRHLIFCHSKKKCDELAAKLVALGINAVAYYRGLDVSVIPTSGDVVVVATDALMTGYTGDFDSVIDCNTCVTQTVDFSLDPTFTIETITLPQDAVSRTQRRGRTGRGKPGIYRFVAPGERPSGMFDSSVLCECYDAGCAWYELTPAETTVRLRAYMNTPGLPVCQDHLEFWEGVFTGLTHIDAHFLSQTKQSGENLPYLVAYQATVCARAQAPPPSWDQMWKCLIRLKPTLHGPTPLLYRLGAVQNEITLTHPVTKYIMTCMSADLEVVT
T1 sequence (P26664 1027-1657): as above

O=c1oc(Cl)c(Cl)c2ccccc12 [DCIC, di-chloro-iso-coumarin]
OD, 15 minutes preincubation [1]: 1.563 and 1.590 | OD, 1 hour preincubation [1]: 1.991 and 2.152 | OD of the reaction product ([2]; substrate 4B/5A 5 μg/well, 10X peptide 4A): 1.435 and 1.328 | OD of the reaction product ([2]; substrate 4B/5A 5 μg/well, 20X peptide 4A): 1.374 and 1.373 | OD of the reaction product ([2]; substrate 4B/5A 5 μg/well, no peptide 4A): 1.400 and 1.491 | OD of the reaction product ([2]; substrate 4B/5A 10 μg/well, 10X peptide 4A): 1.729 and 1.715 | OD of the reaction product ([2]; substrate 4B/5A 10 μg/well, 20X peptide 4A): 1.584 and 1.690 | OD of the reaction product ([2]; substrate 4B/5A 10 μg/well, no peptide 4A): 1.769 and 1.686 | OD ([3]; preincubation of protease, substrate and inhibitor overnight, pro A-NS5 10 μg/ml, protease 1:100 D): 1.578 | OD ([3]; preincubation of protease, substrate and inhibitor overnight, pro A-NS5 10 μg/ml, protease 1:200 D): 1.458 | OD ([3]; preincubation of protease, substrate and inhibitor overnight, pro A-NS5 10 μg/ml, protease 1:500 D): 1.083 | OD, Exp. 1 [3, 5]: 1.235 | OD, Exp. 2 [3, 5]: 0.768 | OD ([3]; substrate and protease incubated for 2 hours, pro A-NS5 10 μg/ml, protease 1:100 D): 1.137 | OD ([3]; substrate and protease incubated for 2 hours, pro A-NS5 10 μg/ml, protease 1:200 D): 1.235 | OD ([3]; substrate and protease incubated for 2 hours, pro A-NS5 10 μg/ml, protease 1:500 D): 0.503 | OD ([3]; substrate and protease incubated for 2 hours, proA-NS5 2 μg/ml, protease 1:100 D): 0.627 | OD ([3]; substrate and protease incubated for 2 hours, proA-NS5 2 μg/ml, protease 1:200 D): 0.631 | OD ([3]; substrate and protease incubated for 2 hours, proA-NS5 2 μg/ml, protease 1:500 D): 0.545 | OD ([3]; substrate and protease incubated overnight, pro A-NS5 10 μg/ml, protease 1:100 D): 0.899 | OD ([3]; substrate and protease incubated overnight, pro A-NS5 10 μg/ml, protease 1:200 D): 0.998 | OD ([3]; substrate and protease incubated overnight, pro A-NS5 10 μg/ml, protease 1:500 D): 0.887 | OD ([3]; substrate and protease incubated overnight, proA-NS5 2 μg/ml, protease 1:100 D): 0.449 | OD ([3]; substrate and protease incubated overnight, proA-NS5 2 μg/ml, protease 1:200 D): 0.467 | OD ([3]; substrate and protease incubated overnight, proA-NS5 2 μg/ml, protease 1:500 D): 0.328 | OD w/ DMSO 1 μl ([4]; with DMSO 1 μl): 2.596 | OD w/o DMSO ([4]; without DMSO): 2.915
